Results: PubChem BioAssay (NCI)
Several values for one entry are separate records, joined by “and”; a condition that tells them apart may be missing. Identical values can stand only once.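 Cells were grown in 96-well plates and exposed to each compound for 48 hours at five concentrations; endpoints were interpolated linearly between bracketing concentrations, or set to the highest concentration if not reached. The concentration for 50% growth inhibition is given as GI50. TGI marks complete inhibition of growth.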

What was measured:
Assay in all cases: NCI tumour cell line growth inhibition, 48 h
[1] = test system: KM12 colon
[2] = test system: HCT-116 colon
[3] = test system: SF-295 CNS
[4] = test system: SK-MEL-2 melanoma
[5] = test system: SF-539 CNS
[6] = test system: DU-145 prostate
[7] = test system: NCI-H23 lung
[8] = test system: SN12C renal
[9] = test system: SK-OV-3 ovarian
[10] = test system: ACHN renal

Row | Structure (SMILES) | GI50 [1] | TGI [1] | GI50 [2] | TGI [2] | GI50 [3] | TGI [3] | GI50 [4] | TGI [4] | GI50 [5] | TGI [5] | GI50 [6] | TGI [6] | GI50 [7] | TGI [7] | GI50 [8] | TGI [8] | GI50 [9] | TGI [9] | GI50 [10] | TGI [10]
1 | O=C1Nc2ccc(Cl)cc2/C1=C\c1c(-c2ccc(Cl)cc2)nc2sc(C3CC3)nn12 | 15.8 µM | > 100 µM | 3 µM | 11.4 µM | 2.23 µM | 6.89 µM | 4.9 µM | 19.8 µM | 1.88 µM | 3.78 µM | 5.73 µM | 17.6 µM | 4.39 µM | 17.6 µM | 3.54 µM | 14.2 µM | 2.51 µM | 6.64 µM | 2.77 µM | 12.3 µM
2 | COc1cc([N+](=O)[O-])c(OC)cc1-c1nc2sc(C)c(C)n2c1/C(N)=N/C(=N)N | > 100 µM | > 100 µM | > 100 µM | > 100 µM | > 100 µM | > 100 µM | – | – | – | – | > 100 µM | > 100 µM | > 100 µM | > 100 µM | – | – | – | – | > 100 µM | > 100 µM
3 | O=C(Nc1ccc(Oc2ccc(F)cc2)cc1)[C@@H]1C[C@@H](Cc2ccc(F)cc2)CN1C(=O)Cn1ccnn1 | 9.43 µM | 24.1 µM | 4.79 µM | 17.3 µM | 3.64 µM | 14.2 µM | 8.05 µM | 23 µM | 10.6 µM | 26.6 µM | 13.6 µM | > 85.7 µM | 12.1 µM | 35.5 µM | 5.73 µM | 21.8 µM | 19.5 µM | > 75.7 µM | 4.93 µM | 25.2 µM
4 | O=C1CC(c2c[nH]c3ccc(F)cc23)C(=O)N1 (stereo not given) | > 100 µM | > 100 µM | > 100 µM | > 100 µM | > 100 µM | > 100 µM | > 100 µM | > 100 µM | > 100 µM | > 100 µM | > 100 µM | > 100 µM | > 100 µM | > 100 µM | > 100 µM | > 100 µM | > 100 µM | > 100 µM | > 100 µM | > 100 µM
5 | Cn1cc(/C=C\[N+](=O)[O-])c2ccccc21 | 34.9 µM | > 100 µM | 19 µM | 43 µM | 52.9 µM | > 100 µM | > 100 µM | > 100 µM | 23.5 µM | 49.1 µM | 29.7 µM | 81.7 µM | 74.7 µM | > 100 µM | > 100 µM | > 100 µM | > 100 µM | > 100 µM | > 100 µM | > 100 µM
6 | c1cc(N[C@@H]2CCNC2)nc(-c2cnc3ccc(-c4cn[nH]c4)cn23)c1 | 0.868 µM | 51.4 µM | 3.43 µM | > 100 µM | 12 µM | > 55 µM | 2.55 µM | 6.82 µM | 1.61 µM | 8.17 µM | 9.09 µM | > 100 µM | 5.07 µM | 35.9 µM | 0.795 µM | 13.4 µM | 7.8 µM | 68.6 µM | 19.2 µM | > 100 µM
7 | CCOC(=O)CSc1cc(Cl)c(C)cc1S(=O)(=O)/N=C(/N=C/c1ccc([N+](=O)[O-])s1)NNC | 18.5 µM | 42.2 µM | 13.5 µM | 26.3 µM | 16.1 µM | 47 µM | 31 µM | 59.1 µM | – | – | 7.45 µM | 41.2 µM | 14.5 µM | 37.2 µM | – | – | 24.3 µM | 67.1 µM | 17 µM | 39.9 µM
8 | Cc1ccccc1N=Nc1c(O)ccc2ccccc12 | – | > 100 µM | – | > 100 µM | – | > 100 µM | – | > 100 µM | – | – | – | > 100 µM | – | > 100 µM | – | > 100 µM | – | > 100 µM | – | > 100 µM
9 | COc1cc(/C=C/C(=O)c2cccc(-n3cc(-c4cc(OC)c(OC)c(OC)c4)[nH]c3=O)c2)cc(OC)c1OC | 1.12 µM | 2.46 µM | 0.749 µM | 2.13 µM | 4.96 µM | 19.5 µM | 3.02 µM | 7.63 µM | 3.12 µM | 18 µM | 2.98 µM | 13.6 µM | 2 µM | 4.68 µM | 2.75 µM | 18.2 µM | 5.12 µM | > 100 µM | 1.74 µM | 3.3 µM
10 | CC(=O)OCC1OC(n2c(=S)n(-c3ccc([N+](=O)[O-])cc3)c(=O)c3ccccc32)C(OC(C)=O)C(OC(C)=O)C1OC(C)=O (stereo not given) | 25.5 µM and 17.4 µM | > 75.4 µM and 46.9 µM | 18.1 µM and 25.2 µM | > 100 µM | – | > 59.8 µM and 62.3 µM | 12 µM and 22.5 µM | 17.4 µM and 58.8 µM | – | 36 µM and 29.7 µM | – | > 100 µM | – | > 83.2 µM and 46.4 µM | – | 70.1 µM and 44.4 µM | – | 60.1 µM and 50.1 µM | 20.3 µM and 29.7 µM | 97.9 µM and > 100 µM
11 | CSC1=NC(=Nc2c(C)cccc2C)C2(CCC(C(C)(C)C)CC2)N1c1ccc(Cl)cc1 (stereo not given) | 20.9 µM | > 100 µM | 4.87 µM | > 100 µM | 29.9 µM | > 100 µM | > 100 µM | > 100 µM | 71.7 µM | > 100 µM | > 100 µM | > 100 µM | 24.7 µM | > 100 µM | 40.8 µM | > 100 µM | > 100 µM | > 100 µM | 8.4 µM | > 100 µM
12 | Cc1ccc(CNc2ccc(Br)cc2)cc1 | – | > 100 µM | – | > 100 µM | – | > 100 µM | – | – | – | > 100 µM | – | > 100 µM | – | > 100 µM | – | > 100 µM | – | > 100 µM | – | 41.7 µM
13 | COc1cccc(/C=C/C(=O)c2ccc3cc(OC)ccc3c2)c1 | 9.91 µM | 22.9 µM | 9.21 µM | 16.2 µM | 9.58 µM | 22.1 µM | 48.3 µM | > 50 µM | 7.95 µM | 16.8 µM | 8.54 µM | 17.5 µM | 11.6 µM | 21 µM | – | – | 10.7 µM | 22.7 µM | – | –
14 | COc1cccc2c1-c1nc(N)c3c(OC)cccc3c1C2=O | – | 35.3 µM | – | > 100 µM | – | > 100 µM | – | > 100 µM | – | > 100 µM | – | > 100 µM | – | > 100 µM | – | > 100 µM | – | > 100 µM | – | –
